Experimental findings from publication PMC4701221, “Novel Promising Estrogenic Receptor Modulators: Cytotoxic and Estrogenic Activity of Benzanilides and Dithiobenzanilides” (PLoS ONE, 2016) are described below.

One series deals with A549 cells. Description: MTT assay, A549. Conditions: Homo sapiens, 72 h, lung adenocarcinoma, read-out: Cytotoxic activity IC50, A549. Format: cell-based. On the procedure: (§1) The cell lines used in the cytotoxicity study, besides MCF-12A, were purchased from European Collection of Cell Culture (ECACC, Salisbury, UK): HEK293 (human embryonic kidney, ATTC no. CRL-1573), A549 (Human lung carcinoma, ECACC no. 86012804), CCD39Lu (Human lung fibroblasts, ECACC no. 90110512), MCF-7 (Human breast adenocarcinoma, ECACC no. 86012803) and MDA-MB-231 (Human breast adenocarcinoma ECACC no. 92020424). Cell lines were cultured in DMEM medium without phenol red and supplemented with 10% (v/v) FBS, 1% penicillin-streptomycin and 1% L-glutamine. MCF-12A (ATTC no. […]) was purchased from American Type Culture Collection (ATCC Manassas, VA 20110 USA). MCF-12A cells were kept in 1:1 mixture of Dulbecco’s modified Eagle’s medium and Ham’s F12 medium, 20 ng/ml human epidermal growth factor, 100 ng/ml cholera toxin, 0.01 mg/ml bovine insulin, 500 ng/ml hydrocortisone and 5% horse serum. All cell lines were cultured at 37°C, in a humidified atmosphere containing 5% CO2.
(§2) Compounds were dissolved in DMSO to the final concentration of […]. A549, CCD39Lu, MCF-7, MDA-MB-231 and MCF-12A cells were seeded in 96 wells plates at density 2x10^4 cells/well and incubated overnight as described above. Subsequently, cells were treated with tested compounds at concentrations: 100 μM; 50 μM; 25μM; 12.5μM; 6 μM; 3 μM; 1.5 μM. […] Cells were incubated 72 h at 37°C in a humidified atmosphere containing 5% CO2 in the cell culture media appropriate for each cell line. Then, the medium was aspirated and 170 μl MTT solution (5mg/ml) was added to each well. Plates were incubated for 2 hours at 37°C, and then plates were centrifuged at 1200 rpm for 3 minutes. The formazan crystals were dissolved in 200 μl DMSO and plates were further agitated on a plate shaker at 300–500 rpm for 10 minutes. Absorbance at 570 nm (with reference wavelenght 650 nm) was measured using a plate reader (Biotek Instruments, Elx-800). Cell viability was calculated as a percentage relative to the control.

For a further series, the system named is MCF-7 cells. Description: MTT assay, MCF-7. Format: cell-based, human. Conditions: for IC50: Homo sapiens, MCF7, 72 h, estrogen dependent breast adenocarcinoma, read-out: Cytotoxic activity IC50, MCF-7; for Activity in MTT assay (in words), MCF-7: 72 h. The method, then:
as §1, §2

For a further series, the system named is MDA-MB-231 cells. The series is described as follows: MTT assay, MDA-MB-231. Format: cell-based, human. Conditions: for IC50: Homo sapiens, MDA-MB-231, 72 h, estrogen independent breast adenocarcinoma, read-out: Cytotoxic activity IC50, MDA-MB-231. The method, then: as §1, §2
The nature of another series: MTT assay, MCF-12A. It is filed as cell-based. Particulars: human, MCF-12A cells (non-tumorigenic breast epithelial), read-out: Cytotoxic activity IC50, MCF-12A. On the procedure: as §1, §2
A short description of the next series: MTT assay, CCD39Lu. It is filed as cell-based. Conditions: human, CCD39Lu cells (non-tumorigenic lung fibroblasts), read-out: Cytotoxic activity IC50, CCD39Lu. On the procedure: as §1, §2
Another series addresses T1, human ERα receptor (Homo sapiens, UniProt P03372).
T1 construct: host or cells: HEK293
T1 sequence (P03372 1-595): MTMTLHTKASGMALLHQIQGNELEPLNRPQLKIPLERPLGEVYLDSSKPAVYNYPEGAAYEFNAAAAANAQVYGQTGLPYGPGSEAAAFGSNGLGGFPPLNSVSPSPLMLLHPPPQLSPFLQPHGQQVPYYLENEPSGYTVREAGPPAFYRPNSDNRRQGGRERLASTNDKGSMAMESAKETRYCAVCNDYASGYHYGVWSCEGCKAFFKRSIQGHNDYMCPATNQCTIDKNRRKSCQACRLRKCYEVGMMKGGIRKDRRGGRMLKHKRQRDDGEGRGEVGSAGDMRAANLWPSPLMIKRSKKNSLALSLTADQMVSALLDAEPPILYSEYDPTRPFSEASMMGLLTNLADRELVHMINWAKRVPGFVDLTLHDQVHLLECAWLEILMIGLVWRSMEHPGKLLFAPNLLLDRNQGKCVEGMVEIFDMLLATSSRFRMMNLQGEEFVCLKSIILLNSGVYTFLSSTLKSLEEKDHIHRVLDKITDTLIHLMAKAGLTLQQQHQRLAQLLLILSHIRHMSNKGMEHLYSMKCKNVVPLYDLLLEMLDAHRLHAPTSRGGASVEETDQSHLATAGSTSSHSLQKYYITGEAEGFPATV
Description: Estrogen Receptor luciferase assay in HEK293 cells transfected with ERα. Format: cell-based. Particulars: HEK293 transfected with ERα and luciferase reporter, compared with estradiol, Fig 3A/3B. From the text:
To obtain a eukaryotic vector expressing only the ER-α nuclear receptor, a construct was designed by cloning a KpnI-BamHI fragment from plasmid pEGFP-C1-ERα containing the ERα coding sequence that includes a stop signal into the pEGFP-N3 plasmid (Clontech Laboratories, Palo Alto, CA) under the control of the CMV promoter. This construction was termed pEGFP-N-ERα, and although it encoded both human ERα receptor and GFP protein, only the former is expressed. For mock transfections, pEGFP-N3 plasmid was digested with BglII and NotI and religated after polishing DNA ends to remove GFP coding sequence. Plasmid sequence was confirmed by automatic sequencing. Prior to transfection, cells were seeded in 48 well plates at density of 1.5 x 10^4 cells/well and incubated for 24 h to reach a cell confluence of 80–90%. […] MCF-7 cells, which endogenously express ERα receptor, were transfected with p3xERRE/ERE-luciferase plus the pRLTK Renilla luciferase control plasmid (95:5). Firefly and Renilla luciferase activities were measured using the Dual Luciferase Assay System (Promega, Madison, WI, USA), following a standard protocol using a Sirius L luminometer (Berthold Technologies, Bad Wildbad, Germany). Data were expressed as relative changes in luciferase activity and normalized to 100%.

SMILES strings stand for the structures.

As to `COc1cc(NC(=S)c2cccc(NC(=S)c3cc(OC)c(OC)c(OC)c3)c2)cc(OC)c1OC` [Compound 20], the IC50 with A549 cells, with MCF-7 cells and with MDA-MB-231 cells was greater than 100 µM each time. Besides, the IC50 at 72 h is greater than 100 µM in “MTT assay, MCF-12A” and greater than 100 µM in “MTT assay, CCD39Lu”.

Take `O=C(Nc1cc(F)c(F)c(F)c1)c1ccccc1[N+](=O)[O-]` [Compound 8]: the IC50 in the series on A549 cells, in the series with MCF-7 cells and in the series on MDA-MB-231 cells was greater than 100 µM throughout. Also, the IC50 at 72 h was greater than 100 µM in the series “MTT assay, MCF-12A” and greater than 100 µM in the series “MTT assay, CCD39Lu”.

For the compound `COc1ccc(NC(=O)c2cc(Cl)ccc2[N+](=O)[O-])cc1` [Compound 3], the IC50 with A549 cells, with MCF-7 cells and in the series with MDA-MB-231 cells was greater than 100 µM in each case. Moreover, the IC50 at 72 h is greater than 100 µM in “MTT assay, MCF-12A” and greater than 100 µM in the series “MTT assay, CCD39Lu”.

As to `COc1cc(NC(=O)c2ccccc2[N+](=O)[O-])cc(OC)c1OC` [Compound 7], the IC50 in the series with A549 cells was 93.1 µM; with MCF-7 cells, greater than 100 µM; in the series on MDA-MB-231 cells it was greater than 100 µM. The IC50 at 72 h in the series “MTT assay, MCF-12A” was greater than 100 µM; in the series “MTT assay, CCD39Lu” it was greater than 100 µM.

`COc1ccc(NC(=O)c2cc(C)c(C)cc2[N+](=O)[O-])cc1` [Compound 5]: the IC50 was greater than 100 µM in the series on A549 cells, greater than 100 µM with MCF-7 cells and 92 µM with MDA-MB-231 cells. The IC50 at 72 h in the series “MTT assay, MCF-12A” was greater than 100 µM; in the series “MTT assay, CCD39Lu”, greater than 100 µM.

As for `COc1ccc(NC(=O)c2ccc(NC(=O)c3ccc(OC)cc3)cc2)cc1` [Compound 17], the concentration for half-maximal inhibition (IC50) in the series with A549 cells, in the series with MCF-7 cells and in the series with MDA-MB-231 cells was greater than 100 µM each time. For the same compound, the IC50 at 72 h in the series “MTT assay, MCF-12A” was greater than 100 µM; in the series “MTT assay, CCD39Lu” it was greater than 100 µM.

In the case of `COc1ccc(NC(=O)c2ccc(F)cc2[N+](=O)[O-])cc1` [Compound 2], the IC50 in the series on A549 cells was determined as 47.6 µM; in the series on MCF-7 cells it was 38.3 µM; in the series on MDA-MB-231 cells, 39.7 µM. Moreover, the “Activity in MTT assay (in words), MCF-7” value with MCF-7 cells is given as “significant activity”. Further, the “ER dependent transcriptional activity” value at human ERα receptor is “did not stimulate ER dependent transcriptional activity”. In addition, the half-maximal inhibitory concentration (IC50) at 72 h in the series “MTT assay, MCF-12A” is greater than 100 µM; in “MTT assay, CCD39Lu”, 45.2 µM.

Take `COc1ccc(NC(=O)c2ccccc2NC(=O)COC(C)=O)cc1` [Compound 19]: the half-maximal inhibitory concentration (IC50) in the series with A549 cells was 72.4 µM; in the series with MCF-7 cells, greater than 100 µM; in the series with MDA-MB-231 cells it was greater than 100 µM. Besides, the IC50 at 72 h in “MTT assay, MCF-12A” is greater than 100 µM; in the series “MTT assay, CCD39Lu”, 47.9 µM.

As for `COc1ccc(NC(=O)c2ccc(OC)cc2[N+](=O)[O-])cc1` [Compound 4], the IC50 was 30.1 µM in the series with A549 cells, 28.4 µM in the series with MCF-7 cells and 67 µM with MDA-MB-231 cells. The “Activity in MTT assay (in words), MCF-7” value in the series with MCF-7 cells is “significant activity”. Moreover, the “ER dependent transcriptional activity” value at human ERα receptor is on record as “did not stimulate ER dependent transcriptional activity”. The half-maximal inhibitory concentration (IC50) at 72 h is greater than 100 µM in the series “MTT assay, MCF-12A” and 48.8 µM in the series “MTT assay, CCD39Lu”.

For the compound `O=C(Nc1cc(F)c(F)c(F)c1F)c1ccccc1NC(=O)c1cc(F)c(F)c(F)c1F` [Compound 12], the IC50 was greater than 100 µM with A549 cells, greater than 100 µM with MCF-7 cells and 40.1 µM in the series on MDA-MB-231 cells. In addition, the “ER dependent transcriptional activity” value on human ERα receptor was “did not stimulate ER dependent transcriptional activity”. Moreover, the half-inhibitory concentration (IC50) at 72 h is greater than 100 µM in “MTT assay, MCF-12A” and 61.4 µM in the series “MTT assay, CCD39Lu”.

In the case of `O=C(Nc1ccccc1C(=O)Nc1cc(F)c(F)c(F)c1)c1cc(F)c(F)c(F)c1` [Compound 9], the IC50 with A549 cells, in the series with MCF-7 cells and with MDA-MB-231 cells was greater than 100 µM throughout. Moreover, the IC50 at 72 h was greater than 100 µM in the series “MTT assay, MCF-12A” and greater than 100 µM in “MTT assay, CCD39Lu”.

For the compound `COc1cc(NC(=S)c2ccccc2NC(=S)c2cc(OC)c(OC)c(OC)c2)cc(OC)c1OC` [Compound 13], the IC50 in the series on A549 cells, in the series with MCF-7 cells and in the series with MDA-MB-231 cells was greater than 100 µM each time. For the same compound, the IC50 at 72 h is greater than 100 µM in “MTT assay, MCF-12A” and greater than 100 µM in “MTT assay, CCD39Lu”.

Take `COc1ccc(NC(=O)c2ccccc2[N+](=O)[O-])cc1` [Compound 1]: the IC50 in the series with A549 cells was 92.4 µM; with MCF-7 cells it was 74.9 µM; in the series on MDA-MB-231 cells, 79.8 µM. Further, the IC50 at 72 h in “MTT assay, MCF-12A” is greater than 100 µM; in “MTT assay, CCD39Lu”, 96.3 µM.

As to `COc1cc(NC(=S)c2ccc(NC(=S)c3cc(OC)c(OC)c(OC)c3)cc2)cc(OC)c1OC` [Compound 16], the IC50 with A549 cells was greater than 100 µM; in the series with MCF-7 cells it was 69.8 µM; in the series with MDA-MB-231 cells, 30 µM. Moreover, at human ERα receptor, the “ER dependent transcriptional activity” value is given as “did not stimulate ER dependent transcriptional activity”. For the same compound, the IC50 at 72 h in “MTT assay, MCF-12A” is greater than 100 µM; in “MTT assay, CCD39Lu” it was 6.48 µM.

As to `Fc1cc(NC(=S)c2ccccc2NC(=S)c2cc(F)c(F)c(F)c2)cc(F)c1F` [Compound 10], the IC50 in the series with A549 cells worked out at 0.41 µM; with MCF-7 cells it was 0.37 µM; with MDA-MB-231 cells it was 0.52 µM. Moreover, the “Activity in MTT assay (in words), MCF-7” value with MCF-7 cells is “significant activity”. Further, in the series on MDA-MB-231 cells (72 h), the “Toxicity/effect in MTT assay (in words), MDA-MB-231” value was “significant degree of toxicity”. Moreover, the IC50 at 72 h in “MTT assay, MCF-12A” came to 1.22 µM; in the series “MTT assay, CCD39Lu” it was 0.76 µM.
